According to patent US6630191B1, “Aspartyl dipeptide ester derivatives and sweeteners” (Ajinomoto Co., Inc., priority 1998, dated 2003):
Marks after values point to notes of the source that are not given here.

How the values were obtained:
[1] = Sensory evaluation of sweetening potency relative to sugar (4% sucrose aqueous solution); details: for Sweetening Potency, compensated value as optical isomer / Sweetening Potency: Relative to sweetening potency of a 4% sucrose aqueous solution; for Sweetening Potency, compensated value as optical isomer: compensated value as optical isomer (DL-homophenylalanine derivatives); for Sweetening potency (relative to sugar): sensory evaluation
Excerpt: For example, the sweetening potency of N-[N-[3-(3-hydroxy-4-methoxyphenyl)propyl]-L-α-aspartyl]-L-(α-methyl)phenylalanine 1-methyl ester was approximately 18,000 times (relative to sugar), that of N-[N-[3-(3-methoxy-4-hydroxyphenyl)propyl]-L-α-aspartyl]-L-(α-methy)phenylalanine 1-methyl ester was approximately 18,000 times (relative to sugar), that of N-[N-[3-(3-hydroxy-4-methoxyphenyl)propyl]-L-α-aspartyl]-3-cyclohexyl-L-alanine 1-methyl ester was approximately 25,000 times (relative to sugar), that of N-[N-[3-(3-methoxy-4-hydroxyphenyl)propyl]-L-α-aspartyl]-3-cyclohexyl-L-alanine 1-methyl ester was approximately 25,000 times (relative to sugar), that of N-[N-[3-(3-methyl-4-hydroxyphenyl)propyl]-L-(α-aspartyl]-3-cyclohexyl-L-alanine 1-methyl ester was approximately 40,000 times (relative to sugar).
With respect to the aspartyl dipeptide derivatives (represented by the following general formula (5)) formed, the structures and the results of the sensory evaluation are shown in Table 1. [drawing 4]

[2] = reported in WO 94/11391; cited from earlier work

| SMILES | Sweetening potency (relative to sugar) [1] | Sweetening Potency [1] | further results |
| --- | --- | --- | --- |
| COC(=O)C(CCc1ccccc1)NC(=O)[C@H](CC(=O)O)NCCCc1ccc(OC)c(O)c1 (mixture of isomers) [Compound 7, N-[N-[3-(3-Hydroxy-4-methoxyphenyl)propyl]-L-α-aspartyl]-DL-homophenylalanine 1-Methyl Ester] | 1,000 times | – | Sweetening Potency, compensated value as optical isomer [1]: 2000^2) |
| COC(=O)C(CCc1ccccc1)NC(=O)[C@H](CC(=O)O)NCCCc1ccc(O)c(OC)c1 (mixture of isomers) [Compound 8, N-[N-[3-(3-Methoxy-4-hydroxyphenyl)propyl]-L-α-aspartyl]-DL-homophenylalanine 1-Methyl Ester] | 1,200 times | – | Sweetening Potency, compensated value as optical isomer [1]: 2400^2) |
| COC(=O)[C@](C)(Cc1ccccc1)NC(=O)[C@H](CC(=O)O)NCCCc1ccc(OC)c(O)c1 [Compound 1, N-[N-[3-(3-Hydroxy-4-methoxyphenyl)propyl]-L-α-aspartyl]-L-(α-methyl)phenylalanine 1-Methyl Ester] | 18,000 times | 18000 | Sweetening potency (relative to sugar) ([1]; listed as N-[N-[3-(3-hydroxy-4-methoxyphenyl)propyl]-L-α-aspartyl]-L-(α-methyl)phenylalani): approximately 18,000 times |
| COC(=O)[C@](C)(Cc1ccccc1)NC(=O)[C@H](CC(=O)O)NCCCc1ccc(O)c(OC)c1 [Compound 2, N-(N-(3-(3-Methoxy-4-hydroxyphenyl)propyl]-L-α-aspartyl]-L-(α-methyl)phenylalanine 1-Methyl Ester] | 18,000 times | 18000 | Sweetening potency (relative to sugar) ([1]; listed as N-[N-[3-(3-methoxy-4-hydroxyphenyl)propyl]-L-α-aspartyl]-L-(α-methy)phenylalanin): approximately 18,000 times |
| COC(=O)[C@H](CC1CCCCC1)NC(=O)[C@H](CC(=O)O)NCCCc1ccc(OC)c(O)c1 [Compound 3, N-[N-[3-(3-Hydroxy-4-methoxyphenyl)propyl]-L-α-aspartyl]-3-cyclohexyl-L-alanine 1-Methyl Ester] | 25,000 times | 25000 | Sweetening potency (relative to sugar) ([1]; listed as N-[N-[3-(3-hydroxy-4-methoxyphenyl)propyl]-L-α-aspartyl]-3-cyclohexyl-L-alanine): approximately 25,000 times |
| COC(=O)[C@H](CC1CCCCC1)NC(=O)[C@H](CC(=O)O)NCCCc1ccc(O)c(OC)c1 [Compound 4, N-[N-(3-(3-Methoxy-4-hydroxyphenyl)propyl]-L-α-aspartyl]-3-cyclohexyl-L-alanine 1-Methyl Ester] | 25,000 times | 25000 | Sweetening potency (relative to sugar) ([1]; listed as N-[N-[3-(3-methoxy-4-hydroxyphenyl)propyl]-L-α-aspartyl]-3-cyclohexyl-L-alanine): approximately 25,000 times |
| COC(=O)C(NC(=O)C(CC(=O)O)NCCCc1ccc(OC)c(O)c1)c1ccccc1 [Compound 5, N-[N-[3-(3-Hydroxy-4-methoxyphenyl)propyl]-L-α-aspartyl]-L-phenylglycin 1-Methyl Ester] | 1,600 times | 1600 | – |
| COC(=O)C(NC(=O)C(CC(=O)O)NCCCc1ccc(O)c(OC)c1)c1ccccc1 [Compound 6, N-[N-[3-(3-Methoxy-4-hydroxyphenyl)propyl]-L-α-aspartyl]-L-phenylglycin 1-Methyl Ester] | 700 times | 700 | – |
| CCCOC(=O)[C@@H](C)NC(=O)[C@H](CC(=O)O)NCCCc1ccc(OC)c(O)c1 [Compound 9, N-[N-[3-(3-Hydroxy-4-methoxyphenyl)propyl]-L-α-aspartyl]-D-alanine 1-n-Propyl Ester] | 800 times | 800 | – |
| CCCOC(=O)[C@@H](C)NC(=O)[C@H](CC(=O)O)NCCCc1ccc(O)c(OC)c1 [Compound 10, N-[-[3-(3-Methoxy-4-hydroxyphenyl)propyl]-α-aspartyl]-D-alanine 1-n-Propyl Ester] | 600 times | 600 | – |
| COC(=O)C(C)(Cc1ccccc1)NC(=O)C(CC(=O)O)NCCCc1ccc(OC)cc1O [Compound 11, N-[N-[3-(2-Hydroxy-4-methoxyphenyl)propyl]-L-α-aspartyl]-L-(α-methyl) Phenylalanine 1-Methyl Ester] | 15,000 times | 15000 | – |
| COC(=O)[C@H](CC1CCCCC1)NC(=O)[C@H](CC(=O)O)NCCCc1ccc(O)c(C)c1 [Compound 12, N-[N-(3-(3-Methyl-4-hydroxyphenyl)propyl]-L-α-aspartyl]-3-cyclohexyl-L-anine 1-Methyl Ester] | 40,000 times | 40000 | Sweetening potency (relative to sugar) ([1]; listed as N-[N-[3-(3-methyl-4-hydroxyphenyl)propyl]-L-(α-aspartyl]-3-cyclohexyl-L-alanine): approximately 40,000 times |
| Cc1ccc(CCCN[C@@H](CC(=O)O)C(=O)N[C@@H](CC2CCCCC2)C(=O)O)c(O)c1 [Compound 13] | 25,000 times | 25000 | – |
| COC(=O)[C@H](Cc1ccccc1)NC(=O)[C@H](CC(=O)O)NCCC(C)(C)C [N-[N-(3,3-dimethylbutyl)-L-α--aspartyl]-L-phenylalanine 1-methyl ester] | – | – | Sweetening potency, times that of sugar [2]: 10,000 times |
| COC(=O)C(Cc1ccc(O)cc1)NC(=O)C(CC(=O)O)NCCC(C)(C)C [N-[N-(3,3-dimethylbutyl)-L-α-aspartyll-L-tyrosine 1-methyl ester] | – | – | Sweetening potency, times that of sugar [2]: 4,000 times |
| COC(=O)[C@H](Cc1ccccc1)NC(=O)[C@H](CC(=O)O)NCCCc1ccccc1 [N-[N-(3-phenylpropyl)-L-α-aspartyl]-L-phenylalanine 1-methyl ester] | – | – | Sweetening potency, times that of sugar [2]: 1,500 times |
| COC(=O)[C@H](Cc1ccccc1)NC(=O)[C@H](CC(=O)O)NCCCc1ccc(O)c(OC)c1 [N-[N-[3-(3-methoxy-4-hydroxyphenyl)propyl]-L-α-aspartyl]-L-phenylalanine 1-methyl ester] | – | – | Sweetening potency, times that of sugar [2]: 2,500 times |
